Measurements taken from patent US20260209211A1, “CYCLIN K DEGRADER AND USE THEREOF” (ADLAI NORTYE BIOPHARMA CO., LTD., priority 2022, published 2026).
Read-outs that look alike come from different tables or passages of the source.

Columns and labels:
[1] = system: NCI-N87 (Human Gastric Cancer Cell); test: Bioactivity detection of NCI-N87 cell growth inhibition (CellTiter-Glo); type: cell-based; settings: NCI-N87 cells, 72 hours, highest concentration 10 μM, read-out: N87 CTG IC50
Protocol: This detection method is used to evaluate the biological activity of the compounds described in this disclosure at the cellular level.
(§1) NCI-N87 cells (purchased from the Chinese Academy of Sciences) were harvested, resuspended in complete medium and adjusted to a cell density of 0.1×10^6 cells per ml. The cell suspension was added to a 96-well plate at a volume of 100 μL per well and cultured overnight in a 37° C., 5% CO2 incubator. Prepare the test compound and add it to the cell plate so that the highest concentration of the compound is 10 μM. Set 8 concentration points according to 3-fold dilution. At the same time, 100% inhibition control wells were set, that is, wells with no cells but only an equal volume of complete culture medium; and 0% inhibition control wells, that is, wells with cells added with 0.1% DMSO. The cell plate was cultured at 37° C. and 5% CO2 for 72 hours. Remove the cell culture plate and add 25 μl CellTiter-Glo Luminescent Cell Viability Reagent (promega cat #G7573) to each well. Incubate in the dark for 10 minutes and then transfer 100 μL to a white plate and use Molecular Devices SpectraMax i3 to detect chemiluminescence. The inhibition rate was calculated using the following formula for data processing: compound inhibition rate=(0% inhibition control well signal−compound treatment well signal)/(0% inhibition control well signal−100% inhibition control well signal)*10000. The calculated data were fitted with four parameters using GraphPad Prism software and the corresponding IC50 was calculated.

[2] = system: HGC27 (Human Gastric Cancer Cell); test: Bioactivity assay for HGC27 cell growth inhibition (CellTiter-Glo); type: cell-based; settings: read-out: HGC27 CTG IC50
Protocol: This detection method is used to evaluate the biological activity of the compounds of the present disclosure at the cellular level.
as §1, with “HGC27” for “NCI-N87”, “0.2×10^6” for “0.1×10^6”, “24” for “72”, “CellTiter-Glo®” for “CellTiter-Glo”, “signal)*100%.” for “signal)*10000.”

[3] = HGC-27, HGC27 cells, 24 hours, CellTiter-Glo, highest concentration 10 μM

| Structure (SMILES) | IC50 [1] | IC50 [2, 3] | IC50 ([2]; HGC-27, 24 h) |
| --- | --- | --- | --- |
| CO[C@@H](C)[C@@H](Nc1nc(NCc2ccc3c(c2)nn2c(CO)ccnc32)ncc1C(F)(F)F)C(N)=O [Compound 79] | 0.009 µM | 0.038 µM | – |
| OCc1ccnc2c3ccc(CNc4ncc(C(F)(F)F)c(OC5COC5)n4)cc3nn12 [Compound 39] | 0.009 µM | 0.054 µM | – |
| CC[C@@H](Nc1nc(NCc2ccc3c(c2)nn2c(CO)ccnc32)ncc1C(F)(F)F)C(N)=O [Compound 40] | 0.007 µM | 0.121 µM | – |
| N#Cc1ccnc2c1[nH]c1cc(CNc3ncc(C(F)(F)F)c(O[C@@H]4CNC[C@@H]4O)n3)ccc12 [Compound 91] | 0.0053 µM | 0.014 µM | – |
| N#Cc1ccnc2c1[nH]c1cc(CNc3ncc(C(F)(F)F)c(N[C@@H]4CNC[C@@H]4O)n3)ccc12 [Compound 86] | 0.004 µM | 0.006 µM | – |
| Cc1ccnc2c1[nH]c1cc(CNc3ncc(C(F)(F)F)c(N[C@@H]4CNCC[C@@H]4O)n3)ccc12 [Compound 83] | 0.008 µM | 0.008 µM | – |
| C[C@@H](N)[C@@H](C)Oc1nc(NCc2ccc3c(c2)[nH]c2c(CO)ccnc23)ncc1C(F)(F)F [Compound 90] | 0.006 µM | 0.0049 µM | – |
| OCc1ccnc2c1[nH]c1cc(CNc3ncc(C(F)(F)F)c(N[C@@H]4CNCC[C@@H]4O)n3)ccc12 [Compound 75] | 0.022 µM | 0.038 µM | – |
| CO[C@@H](C)[C@H](C#N)Nc1nc(NCc2ccc3c(c2)[nH]c2c(CO)ccnc23)ncc1C(F)(F)F [Compound 71] | 0.0086 µM | 0.068 µM | – |
| N#Cc1ccnc2c1[nH]c1cc(CNc3ncc(C(F)(F)F)c(N[C@@H]4CN(C(=O)CN)CC[C@@H]4O)n3)ccc12 [Compound 87] | 0.012 µM | 0.012 µM | – |
| CO[C@@H](C)[C@@H](Nc1nc(NCc2ccc3c(c2)[nH]c2c(CN)ccnc23)ncc1C(F)(F)F)C(N)=O [Compound 57] | 0.011 µM | 0.014 µM | – |
| OCc1ccnc2c1[nH]c1cc(CNc3ncc(C(F)(F)F)c(N[C@@H]4CNC[C@@H]4O)n3)ccc12 [Compound 78] | 0.12 µM | 0.244 µM | – |
| N#Cc1ccnc2c1[nH]c1cc(CNc3ncc(C(F)(F)F)c(N[C@@H]4CN(CCO)CC[C@@H]4O)n3)ccc12 [Compound 94] | 0.0037 µM | 0.009 µM | – |
| C[C@@H](O)[C@@H](C)Nc1nc(NCc2ccc3c(c2)[nH]c2c(C#N)ccnc23)ncc1C(F)(F)F [Compound 98] | 0.002 µM | 0.007 µM | – |
| CC(C)(O)[C@@H](Nc1nc(NCc2ccc3c(c2)[nH]c2c(CN)ccnc23)ncc1C(F)(F)F)C(N)=O [Compound 58] | 0.058 µM | 0.114 µM | – |
| C[C@@H](O)[C@@H](C)Nc1nc(NCc2ccc3c(c2)[nH]c2c(CN)ccnc23)ncc1C(F)(F)F [Compound 34] | 0.0017 µM | 0.007 µM | – |
| COc1ccnc2c1[nH]c1cc(CNc3ncc(C(F)(F)F)c(N[C@@H](C(N)=O)[C@H](C)OC)n3)ccc12 [Compound 97] | 0.0066 µM | 0.043 µM | – |
| C[C@@H](O)[C@H](Nc1nc(NCc2ccc3c(c2)[nH]c2c(C#N)ccnc23)ncc1C(F)(F)F)C(N)=O [Compound 95] | 0.008 µM | – | 0.003 µM |
| CC[C@@H](Nc1nc(NCc2ccc3c(c2)[nH]c2c(CO)ccnc23)ncc1C(F)(F)F)C(=O)NC [Compound 99] | 0.117 µM | – | – |
| CC(C)[C@@H](Nc1nc(NCc2ccc3c(c2)[nH]c2c(CN)ccnc23)ncc1C(F)(F)F)C(N)=O [Compound 48] | 0.02 µM | 0.053 µM | – |
| NCc1ccnc2c1[nH]c1cc(CNc3ncc(C(F)(F)F)c(N[C@@H](C(N)=O)C4CCC4)n3)ccc12 [Compound 56] | 0.03 µM | 0.025 µM | – |
| Cc1ccnc2c1[nH]c1cc(CNc3ncc(C(F)(F)F)c(N[C@H](C)[C@@H](C)O)n3)ccc12 [Compound 68] | 0.001 µM | 0.036 µM | – |
| OCc1ccnc2c1[nH]c1cc(CNc3ncc(C(F)(F)F)c(N[C@@H]4CCNC[C@@H]4O)n3)ccc12 [Compound 77] | 0.061 µM | 0.151 µM | – |
| Cn1c2cc(CNc3ncc(C(F)(F)F)c(N[C@@H]4CNCC[C@@H]4O)n3)ccc2c2nccc(C#N)c21 [Compound 93] | 0.0041 µM | 0.017 µM | – |

| Structure (SMILES) | IC50 [1] | IC50 [2, 3] | IC50 ([2]; HGC-27, 24 h) |
| --- | --- | --- | --- |
| CC[C@@H](Nc1nc(NCc2ccc3c(c2)nn2c(CN)ccnc32)ncc1C(F)(F)F)C(N)=O [Compound 62] | 0.048 µM | 0.07 µM | – |
| CC(C)(C)[C@@H](Nc1nc(NCc2ccc3c(c2)[nH]c2c(CN)ccnc23)ncc1C(F)(F)F)C(N)=O [Compound 55] | 0.019 µM | – | 0.026 µM |
| C[C@@H](O)[C@@H](C)Nc1nc(NCc2ccc3c(c2)nn2c(CN)ccnc32)ncc1C(F)(F)F [Compound 63] | 0.015 µM | 0.02 µM | – |
| CO[C@@H](C)[C@@H](Nc1nc(NCc2ccc3c(c2)[nH]c2c(CO)ccnc23)ncc1C#N)C(N)=O [Compound 74] | 0.075 µM | 0.128 µM | – |
| CC[C@@H](Oc1nc(NCc2ccc3c(c2)[nH]c2c(CN)ccnc23)ncc1C(F)(F)F)C(N)=O [Compound 84] | 0.085 µM | 0.409 µM | – |
| NCc1ccnc2c1[nH]c1cc(CNc3ncc(C(F)(F)F)c(N[C@@H](C(N)=O)C4CC4)n3)ccc12 [Compound 42] | 0.013 µM | 0.02 µM | – |
| CO[C@@H](C)[C@@H](Nc1nc(NCc2ccc3c(c2)[nH]c2c(C#N)ccnc23)ncc1C(F)(F)F)C(N)=O [Compound 67] | 0.0025 µM | 0.014 µM | – |
| OCc1ccnc2c3ccc(CNc4ncc(C(F)(F)F)c(N[C@@H]5CNCC[C@@H]5O)n4)cc3nn12 [Compound 80] | 0.0054 µM | 0.041 µM | – |
| CCC[C@@H](Nc1nc(NCc2ccc3c(c2)[nH]c2c(CN)ccnc23)ncc1C(F)(F)F)C(N)=O [Compound 54] | 0.032 µM | 0.032 µM | – |
| CN1CC[C@H](O)[C@H](Nc2nc(NCc3ccc4c(c3)[nH]c3c(C#N)ccnc34)ncc2C(F)(F)F)C1 [Compound 88] | 0.002 µM | 0.002 µM | – |
| CC[C@@H](Nc1nc(NCc2ccc3c(c2)[nH]c2c(CN)ccnc23)ncc1C(F)(F)F)C(N)=O [Compound 33] | 0.01 µM | 0.032 µM | – |
| C[C@@H](O)[C@@H](C)Nc1nc(NCc2ccc3c(c2)nn2c(CO)ccnc32)ncc1C(F)(F)F [Compound 60] | 0.0018 µM | 0.013 µM | – |
| NCc1ccnc2c1[nH]c1cc(CNc3ncc(C(F)(F)F)c(N[C@H](CC4CC4)C(N)=O)n3)ccc12 [Compound 53] | 0.048 µM | 0.029 µM | – |
| N#Cc1ccnc2c1[nH]c1cc(CNc3ncc(C(F)(F)F)c(N[C@@H]4CCNC[C@@H]4O)n3)ccc12 [Compound 89] | 0.0029 µM | 0.002 µM | – |
| C[C@@H](O)[C@@H](CO)Nc1nc(NCc2ccc3c(c2)[nH]c2c(C#N)ccnc23)ncc1C(F)(F)F [Compound 73] | 0.003 µM | 0.006 µM | – |
| FC(F)(F)c1cnc(NCc2ccc3c(c2)[nH]c2cccnc23)nc1OC1COC1 [Compound 2] | 0.026 µM | 0.139 µM | – |
| N#Cc1ccnc2c1[nH]c1cc(CNc3ncc(C(F)(F)F)c(N[C@@H]4CNCC[C@@H]4O)n3)ccc12 [Compound 81] | 0.0008 µM | – | 0.002 µM |
| C[C@@H](O)[C@@H](CO)Nc1nc(NCc2ccc3c(c2)[nH]c2c(CO)ccnc23)ncc1C(F)(F)F [Compound 13] | 0.013 µM | 0.041 µM | – |
| CC[C@@H](Nc1nc(NCc2ccc3c(c2)[nH]c2c(CO)ccnc23)ncc1C(F)(F)F)C(=O)N(C)C [Compound 100] | 0.112 µM | – | – |
| NCc1ccnc2c1[nH]c1cc(CNc3ncc(C(F)(F)F)c(N[C@@H](C(N)=O)C4CCCC4)n3)ccc12 [Compound 52] | 0.032 µM | 0.039 µM | – |
| CC[C@@H](Nc1nc(NCc2ccc3c(c2)[nH]c2c(C)ccnc23)ncc1C(F)(F)F)C(N)=O [Compound 70] | 0.013 µM | 0.112 µM | – |
| N#Cc1ccnc2c1[nH]c1cc(CNc3ncc(C(F)(F)F)c(N[C@@H]4CNCC[C@H]4O)n3)ccc12 [Compound 85] | 0.0085 µM | – | 0.017 µM |
| CO[C@@H](C)[C@@H](Nc1nc(NCc2ccc3c(c2)[nH]c2c(CO)ccnc23)ncc1C(F)(F)F)C(N)=O [Compound 82] | 0.006 µM | 0.028 µM | – |
